Measured values reported in patent US7612073B2, “Methods of administering tetrahydrobiopterin, associated compositions, and methods of measuring” (Biomarin Pharmaceutical Inc., priority 2007, dated 2009).
Entries after “also recorded” stand apart in the source; their conditions may differ. Values belong to the compound of their own block, whether it stands above or below them.

Assays:
[1] = water adsorption (hygroscopicity) of crystal forms; assay type: physicochemical; settings: dihydrochloride
[2] = parameters: species or system rats and monkeys; settings: rat, monkey, in vivo
From the text: Such variability in absorption of BH4 was also shown in a study described herein on the effect of food on the bioavailability of BH4 in healthy humans.

[3] = physchem; assay type: physicochemical
From the text: Although there is ample literature describing increased bioavailability in fed conditions, this food effect is typically seen with lipophilic (i.e., lipid soluble) water-insoluble drugs and not usually with high water soluble active substance such as BH4. The usual explanation for increases in bioavailability under fed conditions for lipophilic compounds is that high fat meals help solubilize the drug since “like dissolves like” and this makes it available for absorption. Another possible explanation is that high fat meals stimulate the secretion of bile acids which are natural bio-surfactants that help solubilize and emulsify the fats we eat to aid their digestion. These bile acids are also thought to solubilize water-insoluble compounds thereby making them available for absorption. […] Therefore the enhancement of its bioavailability by high fat, high-energy meals is not consistent with such known mechanism.

[4] = physchem; assay type: physicochemical; settings: for Estimated t1/2 Based on t1/2 Obtained at pH 3 (Min) / half-life: buffer
Procedure: However, administration as a solid or semi-solid dosage form and/or with a high-fat meal may maximize bioavailability by increasing the residence time of BH4 in the acidic milieu of the stomach and upper gastrointestinal tract (GIT) where BH4 is chemically stable. […] At pH 3.1, which is within realm of the typical pH of the stomach in normal volunteers, the stability of BH4 at a concentration of 1 mg/mL is over 3 hours. The chemical stability of BH4 may further increase when the pH of the stomach drops below pH 3.1. Therefore prolonged stomach residence time provides intact drug to the stomach wall for absorption, whereas rapid emptying into the intestine degrades BH4 and is thus not available to be absorbed.
In general, the objective of this study was to evaluate the stability of BH4 in buffer solutions ranging in pH from pH 1 to 7 (See Table 15) and in the presence and absence of antioxidants and with or without inert gas in the reaction solutions (See Table 16).
The stability of BH4 is expected to be temperature-dependent. Therefore, the compound stability was evaluated at 2-8° C., 25° C., 30° C. and 37° C. to support the determination of predictive long-term shelf lives for the compound at different temperatures. Determination of the stability of the compound at the physiologic temperature of 37° C. provides data to support the estimation of the stability lifetime of a formulated oral dosage form in the absorptive regions of the GI tract.
Based on this approximation, pH 1.2 to pH 3 solutions were sampled weekly initially and sampling time corrections were made if necessary after the first 2 data points were collected.
Studies were conducted in pH 1-7 buffer solutions and at 5° C., 25° C., 30° C. and 37° C.

[5] = pharmacokinetics of sapropterin after a single oral administration in cynomolgus monkeys; assay type: in vivo, female cynomolgus monkeys; settings: monkey, 10 mg/kg oral
Procedure: A single dose of sapropterin (10 mg/kg) was administered orally to female cynomolgus monkeys (3/group) under fasting conditions.

[6] = rat, radioactive markers in urine
[7] = relative bioavailability of dissolved vs intact tablets and effect of food in healthy subjects; assay type: in vivo, human
From the text: The primary objectives of the study were: (1) to evaluate the relative bioavailability of tetrahydrobiopterin (BH4, sapropterin dihydrochloride) when administered after dissolution of tablet(s) in water or administered as intact tablet(s); (2) to compare the effect of food on the bioavailability of BH4 in healthy subjects. The secondary objective of the study was to assess the safety and tolerability of single oral doses of BH4 in healthy subjects.
This study was an open-label, randomized, three-treatment, six-sequence, three-period crossover study in which 30 subjects were to complete 3 single-dose dosing periods and were randomized to one of six sequence groups (Groups 1, 2, 3, 4, 5, and 6): […]
where all dosing groups received BH4 10 mg/kg orally as follows: a: administered after dissolution of tablet(s) in water given in fasting under fasting conditions b: administered as intact tablet(s) given in fasting under fasting conditions c: administered as intact tablet(s) given 30 minutes after beginning to ingest a high-calorie, high-fat meal in fed conditions Each subject received a single dose of 10 mg/kg of BH4 during each treatment period. A washout period of at least seven days separated each dose administration. A post-study assessment was performed 5-7 days after discharge of the third treatment period. Blood samples for Pharmacokinetic (PK) analysis were drawn at scheduled collection times during each study period: within 30 minutes prior to dose, and 0.5, 1.0, 1.5, 2.0, 2.5, 3.0, 3.5, 4.0, 5.0, 6.0, 8.0, 10.0, 12.0, 18.0, and 24.0 hours post-dose.
Blood (plasma) pharmacokinetic (PK) characteristics were assessed after each dose of study medication. All subjects remained seated in an upright position for 4 hours post-dose. The blood samples were drawn within 30 minutes prior to dose and at 0.5, 1.0, 1.5, 2.0, 2.5, 3.0, 3.5, 4.0, 5.0, 6.0, 8.0, 10.0, 12.0, 18.0, and 24.0 hours post dose. Samples were collected in appropriately labeled 6 mL K2-EDTA purple top Vacutainer® tubes. Blood samples were centrifuged at approximately 3000 rpm at 4° C. for 10 minutes. From the resulting plasma, exactly 1 mL was removed from each sample using a pipet, and placed into an aliquot tube containing 0.1% w/v dithioerythritol. The sample was capped and vortexed for approximately 10 seconds using a VWR Mini Vortexer at speed 6. After completion of these steps, the sample was flash frozen in an isopropyl/dry ice bath and placed in a −70° C. freezer pending analysis.
Pharmacokinetic (PK) analysis of plasma BH4 concentration-time data was performed using non-compartmental methods to obtain estimates of the following PK parameters: • Peak plasma concentration (Cmax) and time to peak concentration (Tmax), obtained directly from the data without interpolation; • λz, the apparent terminal elimination rate constant, determined by log-linear regression of the terminal plasma concentrations; • Area under the plasma concentration-time curve from time zero to the time of last measurable concentration [AUC(0-t)], calculated by the linear trapezoidal method; • The apparent elimination half-life (t½), calculated as 0.693/λz; • Area under the plasma concentration-time curve from time 0 to infinity [AUC(inf)] where AUC(inf)=AUC(0-t)+Ct/λz and Ct is the last measurable concentration. Estimation of Absorption Rate […]
Comparison of the pharmacokinetic parameters Cmax, AUC(0-t), and AUC(inf) for BH4 was conducted using an analysis of variance (ANOVA) model with sequence, subject within sequence, treatment, and period as the classification variables using the natural logarithms of the parameters as the dependent variables. The comparisons of interest were between the dissolved and intact tablet in the fasted state and the intact tablet in the fed and fasted states.

[8] = safety and tolerability of single oral doses of BH4 in healthy subjects; assay type: in vivo, human
Procedure: Safety was evaluated for all subjects who take at least one dose of BH4.
Safety was evaluated by recording the incidence of adverse events, changes in 12-lead ECG parameters, vital signs and physical examination results, and changes in baseline in laboratory test values.
In this study, an adverse event (AE) was defined as any untoward medical occurrence in a subject or clinical investigation subject administered BH4, at any dose, whether or not it has a causal relationship with the event. An AE can therefore be any unfavorable and unintended sign (including an abnormal laboratory finding), symptom, or disease temporally associated with the use of BH4, whether or not related to BH4. This definition included intercurrent illnesses or injuries and exacerbation (increase in frequency, severity or specificity) of pre-existing conditions.
A serious adverse event (SAE) was defined as any AE that has at least one of the following outcomes: […]

water content adsorbed (hygroscopicity) [1]: about 3 percent by weight
SMILES: C[C@H](O)[C@H](O)[C@H]1CNc2nc(N)[nH]c(=O)c2N1.Cl.Cl [Polymorph A, (6R)-L-erythro-tetrahydrobiopterin dihydrochloride]

water content adsorbed (hygroscopicity) [1]: about 3 percent by weight
SMILES: C[C@H](O)[C@H](O)[C@H]1CNc2nc(N)[nH]c(=O)c2N1.Cl.Cl [Polymorph F, (6R)-L-erythro-tetrahydrobiopterin dihydrochloride]

water content adsorbed (hygroscopicity) [1]: about 2.0 percent by weight
SMILES: C[C@H](O)[C@H](O)[C@H]1CNc2nc(N)[nH]c(=O)c2N1.Cl.Cl [Polymorph K, (6R)-L-erythro-tetrahydrobiopterin dihydrochloride]

BH4 absorbed in the gut [2]: 8-11%
solubility [3]: > 1000 mg/mL
dependence of rate of degradation of BH4 [4]: concentration-dependent
effect of sparging on stability of BH4 [4]: substantially enhanced the stability
stability of BH4 at pH 3.1 ([4]; 1 mg/mL, pH 3.1): over 3 hours
Estimated t1/2 Based on t1/2 Obtained at pH 3 (Min) ([4]; pH 2): 177690.0 (123.4 days) Min
Estimated t1/2 Based on t1/2 Obtained at pH 3 (Min) ([4]; pH 3): 17769.0 (12.34 days) Min
half-life ([4]; pH 3): 12.3 days
half-life ([4]; pH 3.1): 12.3 days
Estimated t1/2 Based on t1/2 Obtained at pH 3 (Min) ([4]; pH 4): 1776.9 (1.23 days) Min
Estimated t1/2 Based on t1/2 Obtained at pH 3 (Min) ([4]; pH 5): 177.7 (0.12 days) Min
Estimated t1/2 Based on t1/2 Obtained at pH 3 (Min) ([4]; pH 6): 17.7 (0.01 days) Min
half-life ([4]; pH 6.8): ~0.0104 days
Estimated t1/2 Based on t1/2 Obtained at pH 3 (Min) ([4]; pH 7): 1.8 Min
ratio of reduced biopterin to total biopterins during the test period [5]: nearly constant
rate of GI absorption [6]: 8.8%
median and range for Tmax, dissolved vs intact tablets ([7]; 10 mg/kg oral, fasted): essentially the same
upper limits of 90% confidence intervals of intact-to-dissolved ratios ([7]; 10 mg/kg oral, fasted): greater than 125%
increase in the extent of absorption, intact tablet compared to dissolved tablet ([7]; 10 mg/kg oral, healthy subjects): ~20%
average increase in Cmax and AUC, intact tablet relative to dissolved tablets ([7]; fasted conditions): 20%
increase in Cmax and AUC after a high fat/high calorie meal ([7]; intact tablet): approximately 30%
median and range for Tmax, fed vs fasted conditions ([7]; intact tablet 10 mg/kg): essentially the same
upper limits of 90% confidence intervals of fed-to-fasted ratios ([7]; intact tablet 10 mg/kg): greater than 125%
increase in Cmax and AUC after a high fat/high calorie meal ([7]; tablet dissolved in water): ~80%
SMILES: C[C@H](O)[C@H](O)[C@H]1CNc2nc(N)[nH]c(=O)c2N1 [BH4, 6R-(L-erythro)-5,6,7,8-tetrahydrobiopterin]
study exit assessments, ECG and physical examination evaluations ([8]; human, in vivo): no clinically significant findings
adverse events assessed as mild ([8]; of 9 AEs): 8 AEs
adverse events assessed as moderate in severity ([8]; of 9 AEs): 1 AEs
events judged possibly related to the study drug ([8]; of 9 AEs): 4 events
events judged unrelated to the study drug ([8]; of 9 AEs): five
subjects reporting adverse events ([8]; single 10 mg/kg oral doses): 5 subjects
total adverse events reported ([8]; single 10 mg/kg oral doses): 9 adverse events
serious adverse events (SAEs) ([8]; single 10 mg/kg oral doses, healthy subjects, 10 mg/kg): no serious adverse events; also recorded: no AEs considered serious
